Drawing on patent US20190364889A1, “Application of Enhancer in Shortening the Half Life of and/or Time for Complete Degradation of Pesticide Residue” (priority 2016, published 2019), this text covers complete degradation time for one compound.

The conditions of the series: in vivo.

The structures appear in SMILES notation.

In the case of `CCOCN(C(=O)CCl)c1c(C)cccc1CC` [acetochlor], the complete degradation time was around 21 days.
